Patent US7118895B2, “Process for producing aglycon by using diglycosidase and flavor-improved food containing the aglycon and converting agent to be used in the process” (Amano Enzyme Inc., priority 2000, dated 2006)

Assays:
Crude diglycosidase = assay: Examination of substrate concentration in the conversion into isoflavone aglycons by diglycosidase using soybean materials; assay type: biochemical, Penicillium multicolor IAM7153;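 as to Decomposition efficiency: ratio of each glycoside/aglycon within its isoflavone family: percent of the isoflavone family total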
How it was run: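 Reaction at 55° C, shaken, pH 4.0 (20 mM acetate), using crude diglycosidase from a 1.88 AU/mL enzyme solution on soy flour, soymilk, defatted soybean or soy protein concentrate at 2, 5, 10, 20 or 30% (w/v). Isoflavone aglycons quantified by HPLC of ethanol extracts at 0, 1, 3, 6 h.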

[1] = system: β-Glucosidase derived from almond; assay: Reactivity toward various isoflavone glycosides (HPLC); assay type: biochemical; parameters: unit not given here; conditions: 55 °C, pH 4.0
Method: (§1) Diglycosidase was diluted with an acetate buffer of pH 4.0 to prepare a 0.75 AU/mL enzyme solution. As references, a similar operation was conducted using β-glucosidase (manufactured by Fluka) derived from Aspergillus niger, β-glucosidase (manufactured by Sigma) derived from almond, β-xylosidase derived from pectinase G (manufactured by Amano Enzyme Inc.). Each of purified products of isoflavone glycosides (glycitin, acetylglycitin, malonylglycitin, daidzin, acetyldaidzin, malonyldaidzin, genistin, acetylgenistin, malonylgenistin, all manufactured by Nacalai Tesque, Inc.) was dissolved in methanol to prepare each 2 mM substrate solution. The reaction was carried out by mixing 10 μL of a substrate solution, 200 μL of 20 mM acetate buffer (pH 4.0), and 40 μL of each purified enzyme solution at a total liquid volume of 250 μL. The reaction was carried out at 55° C. and isolation of an aglycon isoflavone from an isoflavone glycoside in the reaction mixture was detected by HLPC at 0, 1, 3, and 6 hours of the reaction.
(§2) To the reaction mixture was added 700 μL of ethanol, followed by stirring and ultrasonication. After centrifugation at 15,000 rpm and 4° C. for 10 minutes, the supernatant was filtered through a filter and then the filtrate was applied to HPLC.
(§3) The isoflavone glycoside and aglycon isoflavone contained in the filtrate was separated and detected by a high performance liquid chromatography (HPLC, Shimadzu CLASS LC-10 system) using TOSOH TSK gel ODS-80TM column (manufactured by Tosoh Corporation). […] The absorbance at 260 nm was detected by a UV detector (Shimadzu, SPD-10AV). Using purified products (manufactured by Nacalai Tesque, Inc.) of the above isoflavone glycosides and aglycon isoflavones, the isoflavone glycoside and aglycon isoflavone were quantitatively determined according to a calibration curve method. By the way, unless otherwise stated, the measuring conditions of HPLC herein mean those described in the example.

[2] = system: β-Xylosidase derived from pectinase G; assay: as above; assay type: biochemical; parameters: unit not given here; conditions: 55 °C, pH 4.0
Method: as §1, §2, §3

SMILES: CC(=O)OC[C@H]1O[C@@H](Oc2cc(O)c3c(=O)c(-c4ccc(O)cc4)coc3c2)[C@H](O)[C@@H](O)[C@@H]1O [acetylgenistin, 6″-O-acetylgenistin]
- Decomposition efficiency: ratio of each glycoside/aglycon within its isoflavone family (Crude diglycosidase; concentrated soybean protein, substrate concentration 2%, heat treatment of enzyme no, reaction time 0 h): 42.9%
- Decomposition efficiency: ratio of each glycoside/aglycon within its isoflavone family (Crude diglycosidase; concentrated soybean protein, substrate concentration 2%, heat treatment of enzyme no, reaction time 1 h): 20.0%
- Decomposition efficiency: ratio of each glycoside/aglycon within its isoflavone family (Crude diglycosidase; concentrated soybean protein, substrate concentration 2%, heat treatment of enzyme no, reaction time 3 h): 8.3%
- Decomposition efficiency: ratio of each glycoside/aglycon within its isoflavone family (Crude diglycosidase; concentrated soybean protein, substrate concentration 2%, heat treatment of enzyme no, reaction time 6 h): 3.3%
- Decomposition efficiency: ratio of each glycoside/aglycon within its isoflavone family (Crude diglycosidase; concentrated soybean protein, substrate concentration 2%, heat treatment of enzyme yes, reaction time 6 h): 41.3%
- Decomposition efficiency: ratio of each glycoside/aglycon within its isoflavone family (Crude diglycosidase; concentrated soybean protein, substrate concentration 5%, heat treatment of enzyme no, reaction time 0 h): 43.1%
- Decomposition efficiency: ratio of each glycoside/aglycon within its isoflavone family (Crude diglycosidase; concentrated soybean protein, substrate concentration 5%, heat treatment of enzyme no, reaction time 1 h): 36.4%
- Decomposition efficiency: ratio of each glycoside/aglycon within its isoflavone family (Crude diglycosidase; concentrated soybean protein, substrate concentration 5%, heat treatment of enzyme no, reaction time 3 h): 26.3%
- Decomposition efficiency: ratio of each glycoside/aglycon within its isoflavone family (Crude diglycosidase; concentrated soybean protein, substrate concentration 5%, heat treatment of enzyme no, reaction time 6 h): 17.8%
- Decomposition efficiency: ratio of each glycoside/aglycon within its isoflavone family (Crude diglycosidase; concentrated soybean protein, substrate concentration 5%, heat treatment of enzyme yes, reaction time 6 h): 41.7%
- Decomposition efficiency: ratio of each glycoside/aglycon within its isoflavone family (Crude diglycosidase; concentrated soybean protein, substrate concentration 10%, heat treatment of enzyme no, reaction time 0 h): 43.4%
- Decomposition efficiency: ratio of each glycoside/aglycon within its isoflavone family (Crude diglycosidase; concentrated soybean protein, substrate concentration 10%, heat treatment of enzyme no, reaction time 1 h): 42.8%
- Decomposition efficiency: ratio of each glycoside/aglycon within its isoflavone family (Crude diglycosidase; concentrated soybean protein, substrate concentration 10%, heat treatment of enzyme no, reaction time 3 h): 37.3%
- Decomposition efficiency: ratio of each glycoside/aglycon within its isoflavone family (Crude diglycosidase; concentrated soybean protein, substrate concentration 10%, heat treatment of enzyme no, reaction time 6 h): 33.2%
- Decomposition efficiency: ratio of each glycoside/aglycon within its isoflavone family (Crude diglycosidase; concentrated soybean protein, substrate concentration 10%, heat treatment of enzyme yes, reaction time 6 h): 42.8%
- Decomposition efficiency: ratio of each glycoside/aglycon within its isoflavone family (Crude diglycosidase; concentrated soybean protein, substrate concentration 20%, heat treatment of enzyme no, reaction time 0 h): 43.7%
- Decomposition efficiency: ratio of each glycoside/aglycon within its isoflavone family (Crude diglycosidase; concentrated soybean protein, substrate concentration 20%, heat treatment of enzyme no, reaction time 1 h): 47.0%
- Decomposition efficiency: ratio of each glycoside/aglycon within its isoflavone family (Crude diglycosidase; concentrated soybean protein, substrate concentration 20%, heat treatment of enzyme no, reaction time 3 h): 44.6%
- Decomposition efficiency: ratio of each glycoside/aglycon within its isoflavone family (Crude diglycosidase; concentrated soybean protein, substrate concentration 20%, heat treatment of enzyme no, reaction time 6 h): 42.3%
- Decomposition efficiency: ratio of each glycoside/aglycon within its isoflavone family (Crude diglycosidase; concentrated soybean protein, substrate concentration 20%, heat treatment of enzyme yes, reaction time 6 h): 43.2%
- Decomposition efficiency: ratio of each glycoside/aglycon within its isoflavone family (Crude diglycosidase; concentrated soybean protein, substrate concentration 30%, heat treatment of enzyme no, reaction time 0 h): 43.5%
- Decomposition efficiency: ratio of each glycoside/aglycon within its isoflavone family (Crude diglycosidase; concentrated soybean protein, substrate concentration 30%, heat treatment of enzyme no, reaction time 1 h): 65.3%
- Decomposition efficiency: ratio of each glycoside/aglycon within its isoflavone family (Crude diglycosidase; concentrated soybean protein, substrate concentration 30%, heat treatment of enzyme no, reaction time 3 h): 61.0%
- Decomposition efficiency: ratio of each glycoside/aglycon within its isoflavone family (Crude diglycosidase; concentrated soybean protein, substrate concentration 30%, heat treatment of enzyme no, reaction time 6 h): 55.9%
- Decomposition efficiency: ratio of each glycoside/aglycon within its isoflavone family (Crude diglycosidase; concentrated soybean protein, substrate concentration 30%, heat treatment of enzyme yes, reaction time 6 h): 42.4%
- Decomposition efficiency: ratio of each glycoside/aglycon within its isoflavone family (Crude diglycosidase; roasted soy flour, substrate concentration 2%, heat treatment of enzyme no, reaction time 0 h): 44.7%
- Decomposition efficiency: ratio of each glycoside/aglycon within its isoflavone family (Crude diglycosidase; roasted soy flour, substrate concentration 2%, heat treatment of enzyme no, reaction time 1 h): 10.6%
- Decomposition efficiency: ratio of each glycoside/aglycon within its isoflavone family (Crude diglycosidase; roasted soy flour, substrate concentration 2%, heat treatment of enzyme no, reaction time 3 h): 5.0%
- Decomposition efficiency: ratio of each glycoside/aglycon within its isoflavone family (Crude diglycosidase; roasted soy flour, substrate concentration 2%, heat treatment of enzyme no, reaction time 6 h): 1.5%
- Decomposition efficiency: ratio of each glycoside/aglycon within its isoflavone family (Crude diglycosidase; roasted soy flour, substrate concentration 2%, heat treatment of enzyme yes, reaction time 6 h): 45.0%
- Decomposition efficiency: ratio of each glycoside/aglycon within its isoflavone family (Crude diglycosidase; roasted soy flour, substrate concentration 5%, heat treatment of enzyme no, reaction time 0 h): 44.7%
- Decomposition efficiency: ratio of each glycoside/aglycon within its isoflavone family (Crude diglycosidase; roasted soy flour, substrate concentration 5%, heat treatment of enzyme no, reaction time 1 h): 22.1%
- Decomposition efficiency: ratio of each glycoside/aglycon within its isoflavone family (Crude diglycosidase; roasted soy flour, substrate concentration 5%, heat treatment of enzyme no, reaction time 3 h): 15.2%
- Decomposition efficiency: ratio of each glycoside/aglycon within its isoflavone family (Crude diglycosidase; roasted soy flour, substrate concentration 5%, heat treatment of enzyme no, reaction time 6 h): 9.2%
- Decomposition efficiency: ratio of each glycoside/aglycon within its isoflavone family (Crude diglycosidase; roasted soy flour, substrate concentration 5%, heat treatment of enzyme yes, reaction time 6 h): 44.7%
- Decomposition efficiency: ratio of each glycoside/aglycon within its isoflavone family (Crude diglycosidase; roasted soy flour, substrate concentration 10%, heat treatment of enzyme no, reaction time 0 h): 38.2%
- Decomposition efficiency: ratio of each glycoside/aglycon within its isoflavone family (Crude diglycosidase; roasted soy flour, substrate concentration 10%, heat treatment of enzyme no, reaction time 1 h): 33.3%
- Decomposition efficiency: ratio of each glycoside/aglycon within its isoflavone family (Crude diglycosidase; roasted soy flour, substrate concentration 10%, heat treatment of enzyme no, reaction time 3 h): 25.3%
- Decomposition efficiency: ratio of each glycoside/aglycon within its isoflavone family (Crude diglycosidase; roasted soy flour, substrate concentration 10%, heat treatment of enzyme no, reaction time 6 h): 18.7%
- Decomposition efficiency: ratio of each glycoside/aglycon within its isoflavone family (Crude diglycosidase; roasted soy flour, substrate concentration 10%, heat treatment of enzyme yes, reaction time 6 h): 45.9%
- Decomposition efficiency: ratio of each glycoside/aglycon within its isoflavone family (Crude diglycosidase; roasted soy flour, substrate concentration 20%, heat treatment of enzyme no, reaction time 0 h): 46.1%
- Decomposition efficiency: ratio of each glycoside/aglycon within its isoflavone family (Crude diglycosidase; roasted soy flour, substrate concentration 20%, heat treatment of enzyme no, reaction time 1 h): 44.1%
- Decomposition efficiency: ratio of each glycoside/aglycon within its isoflavone family (Crude diglycosidase; roasted soy flour, substrate concentration 20%, heat treatment of enzyme no, reaction time 3 h): 35.8%
- Decomposition efficiency: ratio of each glycoside/aglycon within its isoflavone family (Crude diglycosidase; roasted soy flour, substrate concentration 20%, heat treatment of enzyme no, reaction time 6 h): 28.6%
- Decomposition efficiency: ratio of each glycoside/aglycon within its isoflavone family (Crude diglycosidase; roasted soy flour, substrate concentration 20%, heat treatment of enzyme yes, reaction time 6 h): 46.2%
- Decomposition efficiency: ratio of each glycoside/aglycon within its isoflavone family (Crude diglycosidase; roasted soy flour, substrate concentration 30%, heat treatment of enzyme no, reaction time 0 h): 46.7%
- Decomposition efficiency: ratio of each glycoside/aglycon within its isoflavone family (Crude diglycosidase; roasted soy flour, substrate concentration 30%, heat treatment of enzyme no, reaction time 1 h): 46.6%
- Decomposition efficiency: ratio of each glycoside/aglycon within its isoflavone family (Crude diglycosidase; roasted soy flour, substrate concentration 30%, heat treatment of enzyme no, reaction time 3 h): 41.4%
- Decomposition efficiency: ratio of each glycoside/aglycon within its isoflavone family (Crude diglycosidase; roasted soy flour, substrate concentration 30%, heat treatment of enzyme no, reaction time 6 h): 37.8%
- Decomposition efficiency: ratio of each glycoside/aglycon within its isoflavone family (Crude diglycosidase; roasted soy flour, substrate concentration 30%, heat treatment of enzyme yes, reaction time 6 h): 46.1%
- Decomposition efficiency of genistin family in defatted soybean (Crude diglycosidase; substrate concentration 2%, heat treatment of enzyme no, reaction time 0 h): 1.8
- Decomposition efficiency of genistin family in defatted soybean (Crude diglycosidase; substrate concentration 2%, heat treatment of enzyme no, reaction time 1 h): not detected
- Decomposition efficiency of genistin family in defatted soybean (Crude diglycosidase; substrate concentration 2%, heat treatment of enzyme no, reaction time 3 h): not detected
- Decomposition efficiency of genistin family in defatted soybean (Crude diglycosidase; substrate concentration 2%, heat treatment of enzyme no, reaction time 6 h): not detected
- Decomposition efficiency of genistin family in defatted soybean (Crude diglycosidase; substrate concentration 2%, heat treatment of enzyme yes, reaction time 6 h): 1.5
- Decomposition efficiency of genistin family in defatted soybean (Crude diglycosidase; substrate concentration 5%, heat treatment of enzyme no, reaction time 0 h): 1.9
- Decomposition efficiency of genistin family in defatted soybean (Crude diglycosidase; substrate concentration 5%, heat treatment of enzyme no, reaction time 1 h): 0.8
- Decomposition efficiency of genistin family in defatted soybean (Crude diglycosidase; substrate concentration 5%, heat treatment of enzyme no, reaction time 3 h): 0.5
- Decomposition efficiency of genistin family in defatted soybean (Crude diglycosidase; substrate concentration 5%, heat treatment of enzyme no, reaction time 6 h): 0.3
- Decomposition efficiency of genistin family in defatted soybean (Crude diglycosidase; substrate concentration 5%, heat treatment of enzyme yes, reaction time 6 h): 1.8
- Decomposition efficiency of genistin family in defatted soybean (Crude diglycosidase; substrate concentration 10%, heat treatment of enzyme no, reaction time 0 h): 1.9
- Decomposition efficiency of genistin family in defatted soybean (Crude diglycosidase; substrate concentration 10%, heat treatment of enzyme no, reaction time 1 h): 1.3
- Decomposition efficiency of genistin family in defatted soybean (Crude diglycosidase; substrate concentration 10%, heat treatment of enzyme no, reaction time 3 h): 0.9
- Decomposition efficiency of genistin family in defatted soybean (Crude diglycosidase; substrate concentration 10%, heat treatment of enzyme no, reaction time 6 h): 0.6
- Decomposition efficiency of genistin family in defatted soybean (Crude diglycosidase; substrate concentration 10%, heat treatment of enzyme yes, reaction time 6 h): 1.7
- aglycon ([1]; Reaction time 0 h): 0
- glucoside ([1]; Reaction time 0 h): 100
- aglycon ([1]; Reaction time 1 h): 0
- glucoside ([1]; Reaction time 1 h): 100
- aglycon ([1]; Reaction time 3 h): 0
- glucoside ([1]; Reaction time 3 h): 100
- aglycon ([1]; Reaction time 6 h): 0
- glucoside ([1]; Reaction time 6 h): 100
- aglycon ([2]; Reaction time 0 h): 0
- glucoside ([2]; Reaction time 0 h): 100
- aglycon ([2]; Reaction time 1 h): 0
- glucoside ([2]; Reaction time 1 h): 100
- aglycon ([2]; Reaction time 3 h): 0.2
- glucoside ([2]; Reaction time 3 h): 99.8
- aglycon ([2]; Reaction time 6 h): 0.5
- glucoside ([2]; Reaction time 6 h): 99.5
